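Cultured in 96-well plates, cells were exposed to test compound for 48 hours across five concentrations. At the TGI there is no net growth.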
Key:
Assay in all cases: inhibition of tumour cell growth, NCI panel, 48 h
SK-MEL-2 melanoma = tested on: SK-MEL-2 melanoma
OVCAR-8 ovarian = tested on: OVCAR-8 ovarian
RXF 393 renal = tested on: RXF 393 renal
786-0 renal = tested on: 786-0 renal
A549 NSCLC = tested on: A549 NSCLC
HCT-15 colon = tested on: HCT-15 colon
OVCAR-5 ovarian = tested on: OVCAR-5 ovarian
HT29 colon = tested on: HT29 colon
SNB-75 CNS = tested on: SNB-75 CNS
CCRF-CEM leukemia = tested on: CCRF-CEM leukemia
RPMI-8226 leukemia = tested on: RPMI-8226 leukemia

| Compound | TGI (SK-MEL-2 melanoma) [µM] | TGI (OVCAR-8 ovarian) [µM] | TGI (RXF 393 renal) [µM] | TGI (786-0 renal) [µM] | TGI (A549 NSCLC) [µM] | TGI (HCT-15 colon) [µM] | TGI (OVCAR-5 ovarian) [µM] | TGI (HT29 colon) [µM] | TGI (SNB-75 CNS) [µM] | TGI (CCRF-CEM leukemia) [µM] | TGI (RPMI-8226 leukemia) [µM] |
| --- | --- | --- | --- | --- | --- | --- | --- | --- | --- | --- | --- |
| CCOC(=O)C1SC(=Nc2ccc(Cl)cc2Cl)N=C1C (stereo not given) | > 100 | > 100 | > 100 | > 100 | > 100 | > 100 | > 100 | > 100 | 82 | – | – |
| O=[N+]([O-])/C(Cl)=C/C(=C1/Nc2ccccc2O1)[N+](=O)[O-] | – | 40.5 | 38.6 | > 100 | > 100 | 42 | – | > 100 | 35.5 | 53.6 | 66.1 |
| Cc1ccccc1Nc1nc(NNC(=O)Cc2ccccc2)nc(NNC(=O)c2ccncc2)n1 | – | > 10 | – | > 10 | – | > 10 | – | > 10 | > 10 | > 10 | > 10 |
| O=S(=O)(c1cc(Cl)ccc1Cl)N1CCN(c2cccc(Cl)c2)CC1 | – | > 100 | > 100 | > 100 | > 100 | > 100 | > 100 | > 100 | > 100 | > 100 | > 100 |
| C/C=C\C(CC(=O)OC)CC(=O)N(CCC1CN(S(=O)(=O)C(F)(F)F)c2ccccc21)Cc1ccc(OC)cc1OC (stereo not given) | > 100 | – | > 100 | > 100 | > 100 | > 100 | > 100 | – | > 100 | – | > 100 |
| O=C(O)C12CCC(CC1=O)C2 (stereo not given) | > 100 | > 100 | – | > 100 | > 100 | > 100 | > 100 | > 100 | > 100 | > 100 | > 100 |
| O=S(=O)(CCC[C@H]1[C@@H](CCOCc2ccccc2)C2CCCN1O2)c1ccccc1 (stereo not given in full) | – | > 100 | > 100 | > 100 | > 100 | > 100 | > 100 | > 100 | > 100 | > 100 | – |
| CCOC(=O)N/N=C(\CC)OCC | > 100 | > 100 | > 100 | > 100 | > 100 | > 100 | > 100 | – | > 100 | > 100 | – |
| CC(C)OP(=O)(OC(C)C)C(=NCCN=C(NNc1ccccc1[N+](=O)[O-])P(=O)(OC(C)C)OC(C)C)NNc1ccccc1[N+](=O)[O-] | 40 | > 100 | – | > 100 | > 100 | > 100 | 72.8 | – | > 100 | 70.9 | > 100 |
| COC(=O)Cn1c(=O)oc2nc(-c3ccccc3)cc(C(F)(F)F)c21 | > 100 | > 100 | > 100 | > 100 | > 100 | > 100 | > 100 | > 100 | > 100 | – | 95.8 |
| S=C1CC(c2ccccc2)Sc2cc(Cl)ccc2N1 (stereo not given) | – | 31.3 | 18.1 | 17.7 | 38.4 | > 100 | > 100 | > 100 | 20.8 | 9.33 | > 100 |

Source: PubChem BioAssay (NCI)
